Source: patent US10414740B2, “Glutaminase inhibitors and method of use” (Agios Pharmaceuticals, Inc., priority 2012, dated 2019)

What follows are compounds tested against T1, glutaminase (GAC) (Homo sapiens, UniProt O94925) (assay: glutaminase coupled endpoint assay (Example A)). Details: inhibition of glutaminase; IC50 tested in an assay of Example A or Example B.
T1 sequence (O94925 55-598 isoform O94925-3 limits assumed): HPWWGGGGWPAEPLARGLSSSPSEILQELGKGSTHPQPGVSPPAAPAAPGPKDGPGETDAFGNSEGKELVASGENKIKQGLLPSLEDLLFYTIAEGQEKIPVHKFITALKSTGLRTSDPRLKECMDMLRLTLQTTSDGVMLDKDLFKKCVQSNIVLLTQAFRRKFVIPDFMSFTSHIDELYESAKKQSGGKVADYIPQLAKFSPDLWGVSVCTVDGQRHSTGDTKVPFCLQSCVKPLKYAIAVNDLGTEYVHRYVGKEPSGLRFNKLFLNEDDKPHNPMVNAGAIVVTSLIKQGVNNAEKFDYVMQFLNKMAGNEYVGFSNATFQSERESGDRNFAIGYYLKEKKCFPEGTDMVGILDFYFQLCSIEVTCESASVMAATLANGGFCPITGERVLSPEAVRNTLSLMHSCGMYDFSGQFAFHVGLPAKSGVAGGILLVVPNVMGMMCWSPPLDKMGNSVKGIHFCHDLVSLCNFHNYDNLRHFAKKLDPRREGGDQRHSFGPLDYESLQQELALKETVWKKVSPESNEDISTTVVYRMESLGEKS
Format: biochemical
Summary of the method: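 Coupled endpoint read-out: glutamate from GAC is converted by excess GDH, and diaphorase recycles NADH to NAD while reducing resazurin to fluorescent resorufin, so loss of signal means inhibition. Compound in DMSO is preincubated with enzyme for 60 min at room temperature before substrate is added. Hits are counterscreened against GDH/diaphorase alone.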

Row | SMILES | IC50
1 | CC(=O)Nc1nnc(CCCCc2nnc(NC(=O)Cc3ccccc3)s2)s1 [Compound 98] | 100 to 500 nM
2 | O=C(Cc1ccccc1)Nc1cc(CCCCc2cc(NC(=O)Cc3ccccc3)on2)no1 [Compound 99] | 1000 to 10000 nM
3 | O=C(NCc1ccccc1)c1nnc(CCCCc2nnc(C(=O)NCc3ccccc3)s2)s1 [Compound 100] | 100 to 500 nM
4 | COc1cc(CCC(=O)Nc2nnc(CCCCc3nnc(NC(=O)CCc4cc(OC)c(OC)c(OC)c4)s3)s2)cc(OC)c1OC [Compound 101, N,N′-(5,5′-(butane-1,4-diyl)bis(1,3,4-thiadiazole-5,2-diyl))bis(3-(3,4,5-trimethoxyphenyl)propanamide)] | 500 to 1000 nM
5 | O=C(Nc1nnc(CCCCc2nnc(NC(=O)C3CCC3)s2)s1)C1CCC1 [Compound 102, N,N′-(5,5′-(butane-1,4-diyl)bis(1,3,4-thiadiazole-5,2-diyl))dicyclobutanecarboxamide] | 500 to 1000 nM
6 | O=C(CNC(=O)c1ccccc1)Nc1nnc(CCCCc2nnc(NC(=O)CNC(=O)c3ccccc3)s2)s1 [Compound 103, N,N′-(2,2′-(5,5′-(butane-1,4-diyl)bis(1,3,4-thiadiazole-5,2-diyl))bis(azanediyl)bis(2-oxoethane-2,1-diyl))dibenzamide] | 500 to 1000 nM
7 | Cc1cccc(OCC(=O)Nc2nnc(CCCCc3nnc(NC(=O)COc4cccc(C)c4)s3)s2)c1 [Compound 104] | 1000 to 10000 nM
8 | O=C(Nc1nnc(CCCCc2nnc(NC(=O)C3CC3)s2)s1)C1CC1 [Compound 105] | 1000 to 10000 nM
9 | COc1cccc(CCC(=O)Nc2nnc(CCCCc3nnc(NC(=O)CCc4cccc(OC)c4OC)s3)s2)c1OC [Compound 106, N,N′-(5,5′-(butane-1,4-diyl)bis(1,3,4-thiadiazole-5,2-diyl))bis(3-(2,3-dimethoxyphenyl)propanamide)] | 100 to 500 nM
10 | CN(C)c1ccc(CC(=O)Nc2nnc(CCCCc3nnc(NC(=O)Cc4ccc(N(C)C)cc4)s3)s2)cc1 [Compound 107, N,N′-(5,5′-(butane-1,4-diyl)bis(1,3,4-thiadiazole-5,2-diyl))bis(2-(4-(dimethylamino)phenyl)acetamide)] | 100 to 500 nM
11 | O=C(Cc1ccccn1)Nc1nnc(CCC(O)CCc2nnc(NC(=O)Cc3ccccn3)s2)s1 [Compound 108] | 1000 to 10000 nM
12 | CC(C)(Oc1ccc(Cl)cc1)C(=O)Nc1nnc(CCCCc2nnc(NC(=O)C(C)(C)Oc3ccc(Cl)cc3)s2)s1 [Compound 109] | 1000 to 10000 nM
13 | CC(CC(=O)Nc1nnc(CCCCc2nnc(NC(=O)CC(C)c3ccccc3)s2)s1)c1ccccc1 (centres unmarked) [Compound 110] | 1000 to 10000 nM
14 | O=C(CCOc1ccccc1)Nc1nnc(CCCCc2nnc(NC(=O)CCOc3ccccc3)s2)s1 [Compound 111, N,N′-(5,5′-(butane-1,4-diyl)bis(1,3,4-thiadiazole-5,2-diyl))bis(3-phenoxypropanamide)] | 100 to 500 nM
15 | O=C(CCC(=O)c1ccccc1)Nc1nnc(CCCCc2nnc(NC(=O)CCC(=O)c3ccccc3)s2)s1 [Compound 112, N,N′-(5,5′-(butane-1,4-diyl)bis(1,3,4-thiadiazole-5,2-diyl))bis(4-oxo-4-phenylbutanamide)] | 100 to 500 nM
16 | O=C(Cc1ccc(Cl)cc1)Nc1nnc(CCCCc2nnc(NC(=O)Cc3ccc(Cl)cc3)s2)s1 [Compound 113, N,N′-(5,5′-(butane-1,4-diyl)bis(1,3,4-thiadiazole-5,2-diyl))bis(2-(4-chlorophenyl)acetamide)] | 100 to 500 nM
17 | Cc1ccccc1CC(=O)Nc1nnc(CCCCc2nnc(NC(=O)Cc3ccccc3C)s2)s1 [Compound 114, N,N′-(5,5′-(butane-1,4-diyl)bis(1,3,4-thiadiazole-5,2-diyl))bis(2-o-tolylacetamide)] | 100 to 500 nM
18 | CC(C)CC(=O)Nc1nnc(CCCCc2nnc(NC(=O)CC(C)C)s2)s1 [Compound 115, N,N′-(5,5′-(butane-1,4-diyl)bis(1,3,4-thiadiazole-5,2-diyl))bis(3-methylbutanamide)] | 500 to 1000 nM
19 | COc1ccc(CC(=O)Nc2nnc(CCCCc3nnc(NC(C)=O)s3)s2)cc1OC [Compound 118, N-(5-(4-(5-acetamido-1,3,4-thiadiazol-2-yl)butyl)-1,3,4-thiadiazol-2-yl)-2-(3,4-dimethoxyphenyl)acetamide] | 100 to 500 nM
20 | O=C(CC1CCCCC1)Nc1nnc(CCCCc2nnc(NC(=O)CC3CCCCC3)s2)s1 [Compound 121, N,N′-(5,5′-(butane-1,4-diyl)bis(1,3,4-thiadiazole-5,2-diyl))bis(2-cyclohexylacetamide)] | 100 to 500 nM

Other lines, results leading:

Row | IC50 | SMILES
21 | < 100 nM | Cc1[nH]c2ccccc2c1CC(=O)Nc1nnc(CCCCc2nnc(NC(=O)Cc3c(C)[nH]c4ccccc34)s2)s1 [Compound 116, N,N′-(5,5′-(butane-1,4-diyl)bis(1,3,4-thiadiazole-5,2-diyl))bis(2-(2-methyl-1H-indol-3-yl)acetamide)]
22 | < 100 nM | COc1ccc(CC(=O)Nc2nnc(CCCCc3nnc(NC(=O)Cc4ccc(OC)cc4OC)s3)s2)c(OC)c1 [Compound 119, N,N′-(5,5′-(butane-1,4-diyl)bis(1,3,4-thiadiazole-5,2-diyl))bis(2-(2,4-dimethoxyphenyl)acetamide)]
23 | < 100 nM | Cn1nc(CC(=O)Nc2nnc(CCCCc3nnc(NC(=O)Cc4nn(C)c5ccccc45)s3)s2)c2ccccc21 [Compound 122, N,N′-(5,5′-(butane-1,4-diyl)bis(1,3,4-thiadiazole-5,2-diyl))bis(2-(1-methyl-1H-indazol-3-yl)acetamide)]
24 | < 100 nM | O=C(Cc1cccc2[nH]ccc12)Nc1nnc(CCCCc2nnc(NC(=O)Cc3cccc4[nH]ccc34)s2)s1 [Compound 123, N,N′-(5,5′-(butane-1,4-diyl)bis(1,3,4-thiadiazole-5,2-diyl))bis(2-(1H-indol-4-yl)acetamide)]
25 | < 100 nM | O=C(Cc1c[nH]c2ccncc12)Nc1nnc(CCCCc2nnc(NC(=O)Cc3c[nH]c4ccncc34)s2)s1 [Compound 124, N,N′-(5,5′-(butane-1,4-diyl)bis(1,3,4-thiadiazole-5,2-diyl))bis(2-(1H-pyrrolo[3,2-c]pyridin-3-yl)acetamide)]
26 | < 100 nM | O=C(Cc1c[nH]c2cnccc12)Nc1nnc(CCCCc2nnc(NC(=O)Cc3c[nH]c4cnccc34)s2)s1 [Compound 125, N,N′-(5,5′-(butane-1,4-diyl)bis(1,3,4-thiadiazole-5,2-diyl))bis(2-(1H-pyrrolo[2,3-c]pyridin-3-yl)acetamide)]
27 | < 100 nM | O=C(Cc1n[nH]c2ccccc12)Nc1nnc(CCCCc2nnc(NC(=O)Cc3n[nH]c4ccccc34)s2)s1 [Compound 126, N,N′-(5,5′-(butane-1,4-diyl)bis(1,3,4-thiadiazole-5,2-diyl))bis(2-(1H-indazol-3-yl)acetamide)]
28 | < 100 nM | O=C(Cc1c[nH]c2cccnc12)Nc1nnc(CCCCc2nnc(NC(=O)Cc3c[nH]c4cccnc34)s2)s1 [Compound 127, N,N′-(5,5′-(butane-1,4-diyl)bis(1,3,4-thiadiazole-5,2-diyl))bis(2-(1H-pyrrolo[3,2-b]pyridin-3-yl)acetamide)]
29 | < 100 nM | CC(=O)Nc1nnc(CCCCc2nnc(NC(=O)c3ccc4[nH]c(C)nc4c3)s2)s1 [Compound 128, N-(5-(4-(5-acetamido-1,3,4-thiadiazol-2-yl)butyl)-1,3,4-thiadiazol-2-yl)-2-methyl-1H-benzo[d]imidazole-5-carboxamide]
30 | < 100 nM | COc1ccc2[nH]cc(CC(=O)Nc3nnc(CCCCc4nnc(NC(C)=O)s4)s3)c2c1 [Compound 129]
31 | < 100 nM | Cn1cc(CC(=O)Nc2nnc(CCCCc3nnc(NC(=O)Cc4cn(C)c5ccccc45)s3)s2)c2ccccc21 [Compound 130, N,N′-(5,5′-(butane-1,4-diyl)bis(1,3,4-thiadiazole-5,2-diyl))bis(2-(1-methyl-1H-indol-3-yl)acetamide)]
32 | < 100 nM | COc1ccccc1CC(=O)Nc1nnc(CCCCc2nnc(NC(=O)Cc3ccccc3OC)s2)s1 [Compound 132, N,N′-(5,5′-(butane-1,4-diyl)bis(1,3,4-thiadiazole-5,2-diyl))bis(2-(2-methoxyphenyl)acetamide)]
